Source: patent publication US20250120981A1, “MRTX1133 PHARMACEUTICAL COMPOSITIONS” (MIRATI THERAPEUTICS, INC., priority 2023, published 2025)
Values joined by “and” are separate entries in the source; they are usually repeats but may differ in a detail not shown here. Equal values may be shown once.

Experiment: Pharmacokinetics in humans, MRTX1133 formulation, oral, single and multiple doses
Assay type: in vivo
Details: for AUCExtrap, Geo Mean: geometric mean of subjects
Experimental: The pharmacokinetics [PK] of the MRTX1133 formulation after oral administration has been evaluated in 25 subjects across 3 escalating dose frequencies under fasting conditions (200 mg twice daily [BID], 400 mg BID, and 800 mg BID), as well as evaluation of 400 mg BID when administered with a low-fat meal (i.e., under fed conditions). The mean (+standard deviation) single-dose and multiple-dose pharmacokinetic profiles of the evaluated doses are presented in FIG. 9 and FIG. 10, respectively. Individual single- and multiple-dose PK profiles can be found in FIG. 11. For all figures, the X-axis represents nominal time of sample collection (hours [h]) and the Y-axis represents plasma concentration (ng/mL). Table 10 lists PK data following the oral administration of a single dose and multiple doses of MRTX1133 formulation by dose level and subject.

[1] = multiple oral doses of 800 mg BID, fasted, individual subjects 1-8
[2] = single oral dose of 200 mg, fasted, individual subjects
[3] = single oral dose of 400 mg with a low-fat meal, individual subjects
[4] = single oral dose of 400 mg, fasted, individual subjects
[5] = single oral dose of 800 mg, fasted, individual subjects 1-8

Tlast [1]: 12 h (7×) and 8 h
Tmax [1]: 6.0 h and 0.5 h (3×)
Plasma concentration (single oral dose of 200 mg, fasted, 0 h, individual subjects): BQL
Plasma concentration (single oral dose of 200 mg, fasted, 0.5 h, individual subjects): BQL
Plasma concentration (single oral dose of 200 mg, fasted, 48 h, individual subjects): BQL
Plasma concentration (single oral dose of 200 mg, fasted, 72 h, individual subjects): BQL
Plasma concentration (single oral dose of 200 mg, fasted, 96 h, individual subjects): BQL
AUCExtrap, Geo Mean (single oral dose of 200 mg, fasted): 7.4%
Tlast [2]: 24 h and 12 h (3×) and 12^a h
Plasma concentration (single oral dose of 400 mg with a low-fat meal, 0 h, individual subjects): BQL
Plasma concentration (single oral dose of 400 mg with a low-fat meal, 12 h, individual subjects): BQL
AUCExtrap, Geo Mean (single oral dose of 400 mg with a low-fat meal): 6.3%
Tlast [3]: 12 h (3×) and 8 h and 96 h
Tmax [3]: 5.0 h
Plasma concentration (single oral dose of 400 mg, fasted, 0 h, individual subjects): BQL
Plasma concentration (single oral dose of 400 mg, fasted, 0.5 h, individual subjects): BQL
AUCExtrap, Geo Mean (single oral dose of 400 mg, fasted): 7.6%
Tlast [4]: 96 h and 12 h (6×)
Tmax [4]: 0.5 h
Plasma concentration (single oral dose of 800 mg, fasted, 0 h, individual subjects): BQL
Plasma concentration (single oral dose of 800 mg, fasted, 48 h, individual subject): BQL
Plasma concentration (single oral dose of 800 mg, fasted, 72 h, individual subject): BQL
Plasma concentration (single oral dose of 800 mg, fasted, 96 h, individual subject): BQL
AUCExtrap (single oral dose of 800 mg, fasted, Geo Mean of subjects): 5.6%
Tlast [5]: 24 h (2×) and 12 h (6×)
Tmax [5]: 0.5 h and 12 h
Structure (SMILES): C#Cc1c(F)ccc2cc(O)cc(-c3ncc4c(N5C[C@H]6CC[C@@H](C5)N6)nc(OC[C@@]56CCCN5C[C@H](F)C6)nc4c3F)c12 [MRTX1133, 4-(4-((1R,5S)-3,8-diazabicyclo[3.2.1]octan-3-yl)-8-fluoro-2-(((2R,7aS)-2-fluorohexahydro-1Hpyrrolizin-7a-yl)methoxy)pyrido[4,3-d]pyrimidin-7-yl)-5-ethynyl-6-fluoronaphthalen-2-ol]
AUC0-12 [1]: 227 ng·h/mL and 509 ng·h/mL and 130 ng·h/mL and 744 ng·h/mL and 248 ng·h/mL and 820 ng·h/mL and 264 ng·h/mL
AUC0-12 Accumulation Ratio [1]: 0.79 and 0.20 and 0.71 and 4.46 and 1.87 and 1.41 and 1.05
AUC0-last [1]: 227 ng · h/mL and 509 ng · h/mL and 130 ng · h/mL and 744 ng · h/mL and 248 ng · h/mL and 820 ng · h/mL and 4,458 ng · h/mL and 264 ng · h/mL
Cmax [1]: 38.2 ng/mL and 241 ng/mL and 34.4 ng/mL and 165 ng/mL and 29.8 ng/mL and 105 ng/mL and 812 ng/mL and 72.6 ng/mL
Cmax Accumulation Ratio [1]: 0.30 and 0.14 and 0.34 and 2.57 and 1.24 and 1.30 and 1.86 and 1.68
Peak to Trough Ratio [1]: 15.0 and 12.5 and 17.1 and 13.8 and 2.81 and 2.88 and 10.4 and 20.0
Plasma concentration (single oral dose of 200 mg, fasted, 1 h, individual subjects): 116 ng/mL and 6.88 ng/mL and 44.6 ng/mL (2×) and 9.39 ng/mL
Plasma concentration (single oral dose of 200 mg, fasted, 1.5 h, individual subjects): 49.8 ng/mL and 3.38 ng/mL and 57.9 ng/mL and 41.4 ng/mL and 42.7 ng/mL
Plasma concentration (single oral dose of 200 mg, fasted, 2 h, individual subjects): 20.4 ng/mL and 4.01 ng/mL and 26.7 ng/mL and 23.5 ng/mL and 122 ng/mL
AUC0-12 [2]: 140 ng·h/mL and 89.2 ng·h/mL and 98.1 ng·h/mL and 99.3 ng·h/mL and 585 ng·h/mL
AUC0-inf [2]: 157 ng · h/mL and 107 ng · h/mL (2×) and 103 ng · h/mL and 653 ng · h/mL
AUC0-last [2]: 152 ng·h/mL and 89.2 ng·h/mL and 98.1 ng·h/mL and 99.3 ng·h/mL and 585 ng·h/mL
AUCExtrap [2]: 3.42% and 16.3% and 4.88% and 7.77% and 10.4%
Cmax [2]: 116 ng/mL and 21.0 ng/mL and 57.9 ng/mL and 44.6 ng/mL and 122 ng/mL
Plasma concentration (single oral dose of 400 mg with a low-fat meal, 1 h, individual subjects): 77.0 ng/mL and 18.7 ng/mL and 28.2 ng/mL and 85.1 ng/mL and 24.7 ng/mL
Plasma concentration (single oral dose of 400 mg with a low-fat meal, 2 h, individual subjects): 83.2 ng/mL and 39.9 ng/mL and 6.47 ng/mL and 76.4 ng/mL and 12.0 ng/mL
Plasma concentration (single oral dose of 400 mg with a low-fat meal, 3 h, individual subjects): 71.5 ng/mL and 3.84 ng/mL and 85.8 ng/mL and 13.6 ng/mL
Plasma concentration (single oral dose of 400 mg with a low-fat meal, 4 h, individual subjects): 65.9 ng/mL and 93.9 ng/mL and 2.43 ng/mL and 99.8 ng/mL and 36.5 ng/mL
Plasma concentration (single oral dose of 400 mg with a low-fat meal, 5 h, individual subjects): 41.4 ng/mL (2×) and 1.41 ng/mL and 163 ng/mL and 22.5 ng/mL
Plasma concentration (single oral dose of 400 mg with a low-fat meal, 6 h, individual subjects): 59.5 ng/mL and 16.9 ng/mL and 1.02 ng/mL and 125 ng/mL and 15.5 ng/mL
AUC0-12 [3]: 564 ng·h/mL and 305 ng·h/mL and 42.6 ng·h/mL and 889 ng·h/mL and 169 ng·h/mL
AUC0-inf [3]: 651 ng · h/mL and 317 ng · h/mL and 43.2 ng · h/mL and 1,351 ng · h/mL and 200 ng · h/mL
AUC0-last [3]: 564 ng · h/mL and 305 ng · h/mL and 42.6 ng · h/mL and 1,307 ng · h/mL and 169 ng · h/mL
AUCExtrap [3]: 13.4% and 3.77% and 3.88% and 3.25% and 15.3%
Cmax [3]: 83.2 ng/mL and 93.9 ng/mL and 28.2 ng/mL and 163 ng/mL and 36.5 ng/mL
AUC0-inf [4]: 636 ng · h/mL and 98.4 ng · h/mL and 137 ng · h/mL and 169 ng · h/mL and 126 ng · h/mL and 1,950 ng · h/mL and 670 ng · h/mL
AUCExtrap [4]: 4.07% and 4.18% and 6.90% and 10.7% and 6.70% and 13.0% and 13.4%
Cmax [4]: 62.1 ng/mL and 62.0 ng/mL and 66.3 ng/mL and 71.0 ng/mL and 37.0 ng/mL and 281 ng/mL and 188 ng/mL
AUC0-12 [5]: 287 ng · h/mL and 2,573 ng · h/mL and 182 ng · h/mL and 167 ng · h/mL and 133 ng · h/mL and 583 ng · h/mL and 3,221 ng · h/mL and 251 ng · h/mL
AUC0-inf [5]: 317 ng · h/mL and 2,665 ng · h/mL and 185 ng · h/mL and 181 ng · h/mL and 141 ng · h/mL and 708 ng · h/mL and 4,902 ng · h/mL
AUC0-last [5]: 315 ng · h/mL and 2,573 ng · h/mL and 182 ng · h/mL and 167 ng · h/mL and 133 ng · h/mL and 583 ng · h/mL and 4,421 ng · h/mL and 251 ng · h/mL
AUCExtrap [5]: 4.05% and 3.44% and 1.58% and 8.08% and 5.77% and 17.7% and 9.81%
Cmax [5]: 129 ng/mL and 1,760 ng/mL and 101 ng/mL and 64.3 ng/mL and 24.0 ng/mL and 80.5 ng/mL and 437 ng/mL and 43.3 ng/mL
